# Measured values reported in patent publication US20250122211A1, “NITROGEN-CONTAINING TETRACYCLIC COMPOUND, PREPARATION METHOD THEREFOR, AND MEDICAL USE THEREOF” (Jiangsu Hengrui Pharmaceuticals Co., Ltd., priority 2021, published 2025).
# How the values were obtained:
# Type in all cases: cell-based
# MIA PaCa-2 cells = test: MIA PaCa-2 cell proliferation assay (CellTiter-Glo); conditions: Homo sapiens, MIA PaCa-2, 72 h, 72 h incubation, read-out: IC50 (nM), inhibitory activity against MIA PaCa-2 cell proliferation
# Method: The inhibitory activity of the compounds of the present disclosure against MIA PaCa-2 cell proliferation was measured. Below is a brief description of the experimental method:
# MIA PaCa-2 cells (ATCC, CRL-1420) were cultured in DMEM/HIGH GLUCOSE medium (GE, SH30243.01) containing 10% fetal bovine serum (Corning, 35-076-CV) and 2.5% horse serum (Beyotime Biological Tech., C0262) (i.e., complete medium). On the first day of the experiment, MIA PaCa-2 cells were seeded into a 96-well plate at a density of 500 cells/well using complete medium, with 90 µL of cell suspension per well, and the plate was incubated overnight in a 37° C., 5% CO2 cell incubator. On the second day, the test compounds, prepared in complete medium and serially diluted, were added at 10 μL/well. The final concentrations of the compounds were 9 concentration points obtained by a 5-fold serial dilution from 10 μM. A blank control containing 0.5% DMSO was set up. The plate was incubated for 72 h in a 37° C., 5% CO2 cell incubator. On the fifth day, the 96-well cell plate was removed from the incubator, and CellTiter-Glo® Luminescent Cell Viability Assay (Promega, G7573) was added at 50 μL/well. After 10 min of room temperature incubation, luminescence signals were measured using a multifunctional microplate reader (PerkinElmer, EnVision2015). The IC50 values for the inhibitory activity of the compounds were calculated using Graphpad Prism software.
# [1] = system: ERK phosphorylation in H358 cells; test: H358 cell ERK phosphorylation inhibition assay (HTRF pERK/total ERK); conditions: Homo sapiens, NCI-H358, 3 h, 3 h incubation, ratio of pERK/total ERK, read-out: IC50 (nM), inhibitory effects on ERK phosphorylation in H358 cells
# Method: The inhibitory effects of the compounds of the present disclosure on ERK phosphorylation in H358 cells were measured. Below is a brief description of the experimental method: H358 cells (ATCC, CRL-5807) were cultured in RPMI1640 medium (Hyclone, SH30809.01) containing 10% fetal bovine serum (Corning, 35-076-CV) (i.e., complete medium). On the first day of the experiment, H358 cells were seeded into a 96-well plate at a density of 25,000 cells/well using complete medium, with 190 μL of cell suspension per well, and the plate was incubated overnight in a 37° C., 5% CO2 cell incubator. On the second day, the test compounds, prepared in complete medium and serially diluted, were added at 10 μL/well. The final concentrations of the compounds were 9 concentration points obtained by a 6-fold serial dilution from 10 μM. A blank control containing 0.5% DMSO was set up. The plate was incubated for 3 h in a 37° C., 5% CO2 cell incubator. After 3 h, the 96-well cell culture plate was removed from the incubator, and the culture medium was pipetted off. PBS (Shanghai BasalMedia Technologies Co., Ltd., B320) was added at 200 μL/well for a single wash. PBS was pipetted off, and lysis buffer (Cisbio, 64KL1FDF) containing a blocking agent (Cisbio, 64KB1AAC) was added at 50 μL/well. The plate was incubated on a shaker for 30 min at room temperature to lyse the cells. After lysis, the lysates were well mixed by pipetting, and 16 μL of lysate was transferred from each well to two HTRF 96-well assay plates (Cisbio, 66PL96100). Subsequently, 4 μL of a premixed phospho-ERK1/2 antibody solution (Cisbio, 64AERPEG) or 4 μL of a premixed total-ERK1/2 antibody solution (Cisbio, 64NRKPEG) was added to each of the plates. The plates were sealed with a plate sealer film, centrifuged for 1 min in a microplate centrifuge, and incubated overnight at room temperature in the dark. On the third day, fluorescence values at an excitation wavelength of 337 nm and emission wavelengths of 665 nm and 620 nm were measured using a PHERAstar multifunctional microplate reader (BMG Labtech, PHERAstar FS). The IC50 values for the inhibitory activity of the compounds were calculated using Graphpad Prism software, based on the compound concentration and the ratio of pERK/total ERK.
# H358 cells = test: H358 proliferation assay (CellTiter-Glo); conditions: Homo sapiens, NCI-H358, 120 h, 120 h incubation, read-out: IC50 (nM), inhibitory activity against H358 cell proliferation
# Method: The inhibitory activity of the compounds of the present disclosure against H358 cell proliferation was measured. Below is a brief description of the experimental method: H358 cells (ATCC, CRL-5807) were cultured in RPMI1640 medium (Hyclone, SH30809.01) containing 10% fetal bovine serum (Corning, 35-076-CV) (i.e., complete medium). On the first day of the experiment, H358 cells were seeded into a 96-well plate at a density of 1200 cells/well using complete medium, with 100 μL of cell suspension per well, and the plate was incubated overnight in a 37° C., 5% CO2 cell incubator. On the second day, the test compounds, prepared in complete medium and serially diluted, were added at 10 μL/well. The final concentrations of the compounds were 9 concentration points obtained by a 5-fold serial dilution from 10 μM. A blank control containing 0.5% DMSO was set up. The plate was incubated for 120 h in a 37° C., 5% CO2 cell incubator. On the seventh day, the 96-well cell plate was removed from the incubator, and CellTiter-Glo® Luminescent Cell Viability Assay (Promega, G7573) was added at 50 μL/well. After 10 min of room temperature incubation, luminescence signals were measured using a multifunctional microplate reader (PerkinElmer, EnVision® 2105). The IC50 values for the inhibitory activity of the compounds were calculated using Graphpad Prism software.
IC50 (MIA PaCa-2 cells),IC50 [1],IC50 (H358 cells),SMILES
5.87 nM,0.28 nM,10.5 nM,"C=CC(=O)N1CCN2C(=O)c3cc(F)c(-c4ccc(F)c5sc(N)c(C#N)c45)c4ccn(c34)CC[C@H]2C1 [Example 2, 4-((S)-10-Acryloyl-2-fluoro-14-oxo-8,8a,9,10,11,12-hexahydro-7H,14H-pyrazino[1′,2′:5,6][1,5]diazocino[3,2,1-hi]indol-3-yl)-2-amino-7-fluorobenzo[b]thiophene-3-carbonitrile]"
11.2 nM,1.16 nM,13.4 nM,"C=CC(=O)N1CCN2C(=O)c3cc(F)c(-c4ccc(F)c5sc(N)c(C#N)c45)c4cc(C)n(c34)CC[C@H]2C1 [Example 4, 4-((S)-10-Acryloyl-2-fluoro-5-methyl-14-oxo-8,8a,9,10,11,12-hexahydro-7H,14H-pyrazino[1′,2′:5,6][1,5]diazocino[3,2,1-hi]indol-3-yl)-2-amino-7-fluorobenzo[b]thiophene-3-carbonitrile]"
0.94 nM,0.15 nM,0.8 nM,"C=CC(=O)N1C[C@@H]2CCn3ncc4c(-c5ccc(F)c6sc(N)c(C#N)c56)c(F)cc(c43)C(=O)N2C[C@H]1C [Example 10, 4-((8aS,11R)-10-Acryloyl-2-fluoro-11-methyl-14-oxo-8,8a,9,10,11,12-hexahydro-7H,14H-pyrazino[1′,2′:5,6][1,5]diazocino[3,2,1-hi]indazol-3-yl)-2-amino-7-fluorobenzo[b]thiophene-3-carbonitrile]"
